Where a name gives a salt, the structure may show the parent alone. Read-outs that look alike come from different tables or passages of the source.
How the values were obtained:
[1] = test system: AMO-1 cells; assay: Antiproliferation assay AMO-1 (Assay 7); type: cell-based
Protocol: (§1) Assessment of the Anti-Proliferative Effect of Compounds in Different Cell Lines
(§2) The impact of compounds on the proliferation of different cell lines was assessed using the CellTiter-Glo® Luminescent Cell Viability reagent from Promega (G7573).
(§3) In parallel, cells were plated in a reference (day 0) plate for time zero determination. Cells were incubated in a humidified incubator at 37° C. overnight.
(§4) Rim wells were excluded. The cells were incubated for 72 h hours in a humidified incubator at 37° C. The day 0 plate was measured by adding 30 μL/well of CTG solution (CellTiter-Glo® Luminescent Cell Viability reagent, Promega G7573) to time zero wells in the reference plate followed by a 10 minutes incubation and luminescence reading at 0.1 ms. using the PHERAstar FS microplate reader (BMG Labtech).
(§5) After 72 h incubation, the treated plates were measured in the same way as the day 0 plate mentioned above. The Bella DRC Master Sheet was used to calculate IC50s, with CI=day 0 values and C0=DMSO control values.

[2] = test system: SUDHL5 cells; assay: Induction of caspase-3/7 activity in SUDHL5 cells (Assay 4); type: cell-based
Protocol: (§6) Induction of Caspase-3/7 Activity Upon Treatment of Cells with Selected Compounds
(§7) The BH3-domain of MCL-1 sequesters pro-apoptotic proteins, thereby inhibiting apoptosis. In contrast, MCL-1 inhibitors are expected to antagonize this effect leading to an increase in apoptosis, which can be determined by measuring the activity of caspase-3/7.
(§8) The activity of caspase-3/7 was determined in DLBCL (Diffuse large B-cell lymphoma) cell lines (SUDHL5 and SUDHL10) upon treatment with different compounds, using the Caspase-Glo® 3/7 reagent from Promega (G8092).
(§9) As a control, medium without cells was also added to the plate. Cells were incubated in a humidified incubator at 37° C. overnight.
(§10) Rim wells were excluded. The cells were incubated for 3 h hours in a humidified incubator at 37° C. After this incubation, 30 μL of Caspase-Glo® 3/7 reagent (Promega G8092) was added to each well using the Multidrop Combi Reagent Dispenser, followed by 1 h incubation at 37° C. Finally, luminescence was read at 0.1 ms, with a gain of 3000 using the PHERAstar FS microplate reader (BMG Labtech).
(§11) For the evaluation of the results, the background measured with “medium-only” was subtracted from all other values. Then, the values were normalized to DMSO-only treated cells (every value was divided by the mean of the DMSO control).

[3] = test system: HMC-1-8 cells; assay: Antiproliferation assay HMC-1-8 (Assay 7); type: cell-based
Protocol: as §1, §2, §3, §4, §5

[4] = test system: SUDHL5 cells; assay: Antiproliferation assay SUDHL5 (Assay 7); type: cell-based; conditions: 72 h, CellTiter-Glo; read-out: Antiproli SUDHL5 IC50 (median)
Protocol: as §1, §2, §3, §4, §5

[5] = test system: SUDHL10 cells; assay: Induction of cytotoxicity in SUDHL10 cells (Assay 6); type: cell-based; conditions: 5 h, CellTiter-Glo; read-out: Cytotox SUDHL10 IC50 (median)
Protocol: Assay 6 Induction of Cytotoxicity Upon Treatment of Cells with Selected Compounds
In principle, compounds that induce apoptosis will concomitantly induce cell cytotoxicity. Therefore, cytotoxicity assays were run in parallel in SUDHL5 and SUDHL10 cells.
As a control, medium without cells was also added to the plate. Cells were incubated in a humidified incubator at 37° C. overnight. […] Rim wells were excluded. The cells were incubated for 5 h hours in a humidified incubator at 37° C. After this incubation, 30 μL of CellTiter-Glo® Luminescent Cell Viability reagent (Promega, G7573) was added to each well using the Multidrop Combi Reagent Dispenser, followed by 15 min incubation on a shaker at room temperature. Finally, luminescence was read at 0.1 ms, with a gain of 3000 using the PHERAstar FS microplate reader (BMG Labtech).

[6] = test system: SUDHL10 cells; assay: Induction of caspase-3/7 activity in SUDHL10 cells (Assay 4); type: cell-based
Protocol: as §6, §7, §8, §9, §10, §11

[7] = test system: SUDHL5 cells; assay: Induction of cytotoxicity in SUDHL5 cells (Assay 6); type: cell-based; conditions: 5 h, CellTiter-Glo; read-out: Cytotox SUDHL5 IC50 (median)
Summary of the method: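 Following overnight seeding at 37 °C, cells are treated with compound for 5 h, after which CellTiter-Glo reagent is added and luminescence measured following a 15 min room-temperature shake.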

[8] = molecular target: BCL-XL (Homo sapiens (Human), UniProt Q07817); assay: Protein-protein interaction assay BCL-XL/Bad BH3 peptide (BCL-XL assay, TR-FRET); type: binding; conditions: read-out: BCL-XL Assay IC50 (median)
Protocol: Assay 2 Protein-Protein Interaction Assay: BCL-XL/Bad BH3 Peptide (BCL-XL Assay)
The dose-dependent inhibition by the compounds described in this invention of the interaction between BCL-XL and the BH3 domain of Bad (both human) was determined using a steady state binding competition assay with time-resolved fluorescence energy transfer (TR-FRET) readout. For that purpose BCL-XL (amino acids 1-212, C-terminal fused to a hexahistidine (6×His) tag (SEQ ID 3) and a synthetic Bad BH3-derived peptide of sequence Biotin-PEG2-PEG2-[…]-Nle-[…]-amide (SEQ ID 4) served as protein receptor and tracer ligand respectively. The recombinant BCL-XL protein (expressed in E. coli) was purchased from BPS Bioscience (San Diego, Calif., USA). The Bad BH3-derived peptide can be obtained from e.g. Biosyntan (Berlin, Germany).
In the assay 11 different concentrations of each compound (0.1 nM, 0.33 nM, 1.1 nM, 3.8 nM, 13 nM, 44 nM, 0.15 μM, 0.51 μM, 1.7 μM, 5.9 μM and 20 μM) were typically measured as duplicates in the same microtiter plate. For that, 100-fold concentrated DMSO solutions were prepared by serial dilutions (1:3.4) of a 2 mM stock solution in a clear, 384-well microtiter plate (Greiner Bio-One, Frickenhausen, Germany). From there, 50 nl were transferred in a dark test plate (Greiner Bio-One, Frickenhausen, Germany). The assay was initiated by addition of 2 μL of a 2,5-fold concentrated His-BCL-XL solution (usually for a 1 nM end concentration in 5 μL reaction volume) in aqueous assay buffer [50 mM Tris/HCl pH 7, 100 mM sodium chloride (NaCl), 50 mM potassium fluoride (KF), 0.005% Tween-20, 2 mM DTT, 0.1% bovine gamma globulin (BGG)] to the compounds in the assay plate. This was followed by a 10-minute incubation step at 22° C. for pre-equilibration of the putative complex between His-BCL-XL and the compounds. After that, 3 μL of a 1.67-fold concentrated solution (in assay buffer) consisting of Bad BH3-derived peptide (1 nM end concentration) and TR-FRET detection reagents [1.67 nM anti-His-Eu cryptate and 1.67 nM streptavidin-XL665 (both from Cisbio Bioassays, Codolet, France)], were added.
The mixture was incubated in the dark for one hour at 22° C. and then overnight at 4° C. The formation of BCL-XL/Bad complexes was determined by measuring the resonance energy transfer of the anti-His- Eu-cryptate antibody to the streptavidin-XL665 present in the reaction. For that purpose, the fluorescence emission at 620 nm and 665 nm after excitation at 330-350 nm was measured in a TR-FRET measuring instrument, for instance a Rubystar or a Pherastar (both from BMG Lab Technologies, Offenburg, Germany) or a Viewlux (Perkin-Elmer). The ratio of the emission at 665 nm and at 622 nm was used as indicator of the amount of BCL-XL/Bad complexes present.
The resulting data (ratio) were normalized, taking 0% inhibition as the mean value of control measurements (usually 32 data points) where all reagents were included. In this case 50 nl DMSO were used instead of compounds. […] IC50 values were determined by regression analysis based on a 4 parameter equation (minimum, maximum, IC50, Hill; Y=Max+(Min−Max)/(1+(X/IC50)^Hill) using the Screener Software (Genedata).

[9] = 72 h, CellTiter-Glo; read-out: Antiproli AMO-1 IC50 median
[10] = caspase-3/7 induction, 3 h; read-out: Caspase SUDHL5 EC50 (median)
[11] = 72 h, CellTiter-Glo; read-out: Antiproli HMC-1-8 IC50 median
[12] = caspase-3/7 induction, 3 h; read-out: Caspase SUDHL10 EC50 (median)
[13] = read-out: Caspase SUDHL5 EC50 (median); caspase-3/7 induction, 3 h
[14] = read-out: Antiproli HMC-1-8 IC50 median; 72 h, CellTiter-Glo
[15] = read-out: Caspase SUDHL10 EC50 (median); caspase-3/7 induction, 3 h

Chain of BCL-XL (Q07817 1-212): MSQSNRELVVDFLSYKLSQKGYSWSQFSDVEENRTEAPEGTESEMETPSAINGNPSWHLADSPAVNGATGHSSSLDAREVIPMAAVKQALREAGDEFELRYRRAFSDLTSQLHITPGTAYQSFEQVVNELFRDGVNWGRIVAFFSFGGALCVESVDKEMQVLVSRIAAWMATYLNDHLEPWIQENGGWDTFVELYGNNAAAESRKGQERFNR

Row | Structure (SMILES) | EC50 [2, 10] [µM] | IC50 [4] [µM] | EC50 [6, 12] [µM] | EC50 [2, 13] [µM] | IC50 [8] [µM] | EC50 [6, 15] [µM] | IC50 [1, 9] [µM] | IC50 [3, 11] [µM] | IC50 [5] [µM] | IC50 [7] [µM] | IC50 [3, 14] [µM] | IC50 ([1]; read-out: Antiproli AMO-1 IC50 median; 72 h, CellTiter-Glo) [µM]
1 | CCc1c2c(nn1C)C(C1CC1)OCCCCn1c(C(=O)O)c(CCCOc3cccc4cc(F)ccc34)c3ccc(Cl)c-2c31 (single isomer, unassigned; enantiomer 2) [Example 40, (−)-4-chloro-15-cyclopropyl-3-ethyl-7-{3-[(6-fluoronaphthalen-1-yl)oxy]propyl}-2-methyl-2,10,11,12,13,15-hexahydropyrazolo[4′,3′:9,10][1,6]oxazacycloundecino[8,7,6-hi]indole-8-carboxylic Acid—N-ethylethanamine Salt (Enantiomer 2)] | – | – | – | > 33 | > 20 | 25 | – | – | 29 | 20 | 23.2 | –
2 | CCc1c2c(nn1C)C(C(F)(F)F)OCCCCn1c(C(=O)O)c(CCCOc3cccc4ccccc34)c3ccc(Cl)c-2c31 (single isomer, unassigned; enantiomer 2) [Example 34, (−)-4-chloro-3-ethyl-2-methyl-7-{3-[(naphthalen-1-yl)oxy]propyl}-15-(trifluoromethyl)-2,10,11,12,13,15-hexahydropyrazolo[4′,3′:9,10][1,6]oxazacycloundecino[8,7,6-hi]indole-8-carboxylic Acid—N-ethylethanamine Salt (Enantiomer 2)] | – | – | – | > 33 | > 20 | > 33 | – | – | 26 | 7.1 | 20.7 | 30.9
3 | CCc1c2c(nn1C)C(CCN(C)C)OCCCCn1c(C(=O)O)c(CCCOc3cccc4cc(F)ccc34)c3ccc(Cl)c-2c31 (single isomer, unassigned) [Example 83, 4-chloro-15-[2-(dimethylamino)ethyl]-3-ethyl-7-{3-[(6-fluoronaphthalen-1-yl)oxy]propyl}-2-methyl-2,10,11,12,13,15-hexahydropyrazolo[4′,3′:9,10][1,6]oxazacycloundecino[8,7,6-hi]indole-8-carboxylic Acid] | 0.23 | 0.42 | 0.34 | – | – | – | 0.65 | 8.74 | 0.33 | 0.27 | – | –
4 | CCc1c2c(nn1C)C(CCC(C)(C)O)OCCCCn1c(C(=O)O)c(CCCOc3cccc4cc(F)ccc34)c3ccc(Cl)c-2c31 (single isomer, unassigned; enantiomer 2) [Example 76, (−)-4-chloro-3-ethyl-7-{3-[(6-fluoronaphthalen-1-yl)oxy]propyl}-15-(3-hydroxy-3-methylbutyl)-2-methyl-2,10,11,12,13,15-hexahydropyrazolo[4′,3′:9,10][1,6]oxazacycloundecino[8,7,6-hi]indole-8-carboxylic Acid—N-ethylethanamine Salt (Enantiomer 2)] | 3.3 | 4.6 | 5.8 | – | – | – | 3.87 | 13 | 5.2 | 3.6 | – | –

The next lines start with results.

Row | EC50 [2, 10] [µM] | IC50 [4] [µM] | EC50 [6, 12] [µM] | EC50 [2, 13] [µM] | IC50 [8] [µM] | EC50 [6, 15] [µM] | Structure (SMILES) | IC50 [1, 9] [µM] | IC50 [3, 11] [µM] | IC50 [5] [µM] | IC50 [7] [µM] | IC50 [3, 14] [µM] | IC50 ([1]; read-out: Antiproli AMO-1 IC50 median; 72 h, CellTiter-Glo) [µM]
5 | 1.8 | 3.1 | 5.4 | – | – | – | CCc1c2c(nn1C)C(CCN(C)C)OCCCCn1c(C(=O)O)c(CCCOc3cccc4cc(F)ccc34)c3ccc(Cl)c-2c31 (single isomer, unassigned) [Example 84, 4-chloro-15-[2-(dimethylamino)ethyl]-3-ethyl-7-{3-[(6-fluoronaphthalen-1-yl)oxy]propyl}-2-methyl-2,10,11,12,13,15-hexahydropyrazolo[4′,3′:9,10][1,6]oxazacycloundecino[8,7,6-hi]indole-8-carboxylic Acid] | 9.56 | > 33 | 4.4 | 1.7 | – | –
6 | 0.95 | 0.91 | 1.6 | – | – | – | CCc1c2c(nn1C)C(CCN(C)C)OCCCCn1c(C(=O)O)c(CCCOc3cccc4cc(F)ccc34)c3ccc(Cl)c-2c31 (single isomer, unassigned) [Example 85, 4-chloro-15-[2-(dimethylamino)ethyl]-3-ethyl-7-{3-[(6-fluoronaphthalen-1-yl)oxy]propyl}-2-methyl-2,10,11,12,13,15-hexahydropyrazolo[4′,3′:9,10][1,6]oxazacycloundecino[8,7,6-hi]indole-8-carboxylic Acid] | 5.17 | > 33 | 2 | 0.87 | – | –
